Assay results taken from PubChem BioAssay AID248 (DTP/NCI, 2004).
Where “and” joins values, the source holds several entries; their conditions need not be identical. Equal entries are not always repeated. Inconclusive results and toxic doses are left out. Cut-off read from the data, not from the text of the source: active = T/C of 150% or more; inactive = T/C below 125%.

Tested on: L1210 leukemia ip in BDF1 mice, survival T/C
Experiment: NCI In Vivo Anticancer Drug Screen. Data for tumor model L1210 Leukemia (intraperitoneal) in B6D2F1 (BDF1) mice
Conditions: endpoint: mean survival time, higher = longer survival
Procedure, shortened: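 Mice bearing the transplanted tumor received compound or vehicle. Survival of the treated group was divided by that of the vehicle-treated control group to give the ratio.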

[1] = dose: 100.0 mg/kg/injection, schedule: Q01DX001 (ip), vehicle: saline
[2] = dose: 200.0 mg/kg/injection, schedule: Q01DX001 (ip), vehicle: saline
[3] = dose: 400.0 mg/kg/injection, schedule: Q01DX001 (ip), vehicle: saline
[4] = dose: 50.0 mg/kg/injection, schedule: Q04DX003 (ip), vehicle: saline with Tween-80
[5] = dose: 100.0 mg/kg/injection, schedule: Q04DX003 (ip), vehicle: saline with Tween-80
[6] = dose: 25.0 mg/kg/injection, schedule: Q04DX002 (ip), vehicle: saline
[7] = dose: 50.0 mg/kg/injection, schedule: Q04DX002 (ip), vehicle: saline
[8] = dose: 75.0 mg/kg/injection, schedule: Q01DX001 (ip), vehicle: saline
[9] = dose: 100.0 mg/kg/injection, schedule: Q04DX002 (ip), vehicle: Klucel (hydroxypropylcellulose) (HPC)
[10] = dose: 200.0 mg/kg/injection, schedule: Q04DX002 (ip), vehicle: Klucel (hydroxypropylcellulose) (HPC)
[11] = dose: 100.0 mg/kg/injection, schedule: Q04DX002 (ip), vehicle: saline
[12] = dose: 100.0 mg/kg/injection, schedule: Q04DX003 (ip), vehicle: Klucel (hydroxypropylcellulose) (HPC)
[13] = dose: 200.0 mg/kg/injection, schedule: Q04DX003 (ip), vehicle: Klucel (hydroxypropylcellulose) (HPC)
[14] = dose: 150.0 mg/kg/injection, schedule: Q01DX001 (ip), vehicle: saline

Measured: T/C

CC(C)(Cl)C(N)=O
inactive: [1] 101 % of control | [2] 103 % of control | [3] 97 % of control

O=C(COc1cccc(Cl)c1)Nc1cc[n+](Cc2ccc(S(=O)(=O)F)cc2)cc1
inactive: dose: 25.0 mg/kg/injection, schedule: Q04DX003 (ip), vehicle: saline with Tween-80 102 % of control | [4] 100 % of control | [5] 97 % of control and 113 % of control

COc1nn(O)cc(C)c1=NC(C)=O
inactive: dose: 12.5 mg/kg/injection, schedule: Q04DX002 (ip), vehicle: saline 102 % of control | [6] 98 % of control | [7] 105 % of control

Cc1cc(Cl)c(Cl)cc1NC(=O)C(Br)C(Br)c1ccccc1 (centres undefined)
inactive: dose: 100.0 mg/kg/injection, schedule: Q01DX009 (ip), vehicle: other 92 % of control | dose: 200.0 mg/kg/injection, schedule: Q01DX009 (ip), vehicle: other 92 % of control | dose: 400.0 mg/kg/injection, schedule: Q01DX009 (ip), vehicle: other 92 % of control

O=C(SCCSC(=O)c1ccccc1)c1ccccc1
inactive: dose: 75.0 mg/kg/injection, schedule: Q04DX003 (ip), vehicle: other 98 % of control | dose: 150.0 mg/kg/injection, schedule: Q04DX003 (ip), vehicle: other 106 % of control | dose: 300.0 mg/kg/injection, schedule: Q04DX003 (ip), vehicle: other 112 % of control

O=C1C2C=CC=CC1C1C=CC2C1
inactive: dose: 100.0 mg/kg/injection, schedule: Q01DX001 (ip), vehicle: saline with Tween-80 93 % of control | dose: 200.0 mg/kg/injection, schedule: Q01DX001 (ip), vehicle: saline with Tween-80 104 % of control | dose: 400.0 mg/kg/injection, schedule: Q01DX001 (ip), vehicle: saline with Tween-80 101 % of control

CCC(OC(=O)Nc1ccc(S(=O)(=O)NC2CCCCC2)cc1)c1ccco1 (centres undefined)
inactive: [1] 94 % of control | [2] 88 % of control | [3] 91 % of control

NC1CCCCC1.[O]=[Cr](=[O])([OH])[OH]
inactive: dose: 12.5 mg/kg/injection, schedule: Q01DX009 (ip), vehicle: saline sonified 100 % of control | dose: 25.0 mg/kg/injection, schedule: Q01DX009 (ip), vehicle: saline sonified 109 % of control | dose: 50.0 mg/kg/injection, schedule: Q04DX003 (ip), vehicle: Klucel (hydroxypropylcellulose) (HPC) 102 % of control | [8] 98 % of control

O=C(CCC(=O)c1ccccc1)OCc1ccccc1
inactive: [9] 96 % of control | [10] 86 % of control

OCC(O)C(O)C(O)C(O)C(SCc1ccccc1)SCc1ccccc1 (centres undefined)
inactive: [9] 98 % of control | [10] 92 % of control | dose: 400.0 mg/kg/injection, schedule: Q04DX002 (ip), vehicle: Klucel (hydroxypropylcellulose) (HPC) 92 % of control

N#CCCC[P+](c1ccccc1)(c1ccccc1)c1ccccc1
inactive: dose: 75.0 mg/kg/injection, schedule: Q01DX001 (ip), vehicle: other 97 % of control | [9] 98 % of control

Cc1ccc(-n2c(N)cc(=O)[nH]c2=S)nc1
inactive: [11] 96 % of control | dose: 200.0 mg/kg/injection, schedule: Q04DX002 (ip), vehicle: saline 100 % of control | dose: 400.0 mg/kg/injection, schedule: Q04DX002 (ip), vehicle: saline 107 % of control

O=C1c2ccccc2C(=O)N1c1ccccc1-c1ccccc1
inactive: dose: 25.0 mg/kg/injection, schedule: Q01DX001 (ip), vehicle: Klucel (hydroxypropylcellulose) (HPC) 95 % of control | dose: 50.0 mg/kg/injection, schedule: Q01DX001 (ip), vehicle: Klucel (hydroxypropylcellulose) (HPC) 103 % of control | dose: 100.0 mg/kg/injection, schedule: Q01DX001 (ip), vehicle: Klucel (hydroxypropylcellulose) (HPC) 101 % of control and 121 % of control | dose: 200.0 mg/kg/injection, schedule: Q01DX001 (ip), vehicle: Klucel (hydroxypropylcellulose) (HPC) 93 % of control and 97 % of control | dose: 400.0 mg/kg/injection, schedule: Q01DX001 (ip), vehicle: Klucel (hydroxypropylcellulose) (HPC) 89 % of control

CCCCC(CC)CNC(C)=O (centres undefined)
inactive: [12] 99 % of control | [13] 95 % of control

Oc1ccc(-c2ccc(O)c(O)c2)cc1O
inactive: dose: 75.0 mg/kg/injection, schedule: Q01DX001 (ip), vehicle: carboxymethylcellulose (CMC) 100 % of control | dose: 150.0 mg/kg/injection, schedule: Q01DX001 (ip), vehicle: carboxymethylcellulose (CMC) 95 % of control

O=C(CSc1cc(Cl)c(Cl)cc1Cl)Nc1cccc(Br)c1
inactive: [4] 94 % of control | [5] 87 % of control | dose: 200.0 mg/kg/injection, schedule: Q04DX003 (ip), vehicle: saline with Tween-80 96 % of control

CC12CCC(O1)C1C[N+](C)(CCC#N)CC12 (centres undefined)
inactive: dose: 55.0 mg/kg/injection, schedule: Q01DX Z (ip), vehicle: saline 105 % of control | dose: 83.0 mg/kg/injection, schedule: Q01DX Z (ip), vehicle: saline 100 % of control | dose: 125.0 mg/kg/injection, schedule: Q01DX Z (ip), vehicle: saline 105 % of control

COc1cccc(CNc2cccc(Cl)c2Cl)c1OC
inactive: dose: 100.0 mg/kg/injection, schedule: Q01DX009 (ip), vehicle: saline with Tween-80 103 % of control | dose: 100.0 mg/kg/injection, schedule: Q04DX003 (ip), vehicle: other 102 % of control | dose: 200.0 mg/kg/injection, schedule: Q01DX009 (ip), vehicle: saline with Tween-80 94 % of control | dose: 200.0 mg/kg/injection, schedule: Q04DX003 (ip), vehicle: other 96 % of control | dose: 400.0 mg/kg/injection, schedule: Q01DX009 (ip), vehicle: saline with Tween-80 109 % of control | dose: 400.0 mg/kg/injection, schedule: Q04DX003 (ip), vehicle: other 113 % of control

CC1C=C2c3ccccc3CC2C2C(=O)OC(=O)C12 (centres undefined)
inactive: [8] 95 % of control | [14] 100 % of control | dose: 300.0 mg/kg/injection, schedule: Q01DX001 (ip), vehicle: saline 100 % of control

CC(=O)c1cccc(OC(=O)c2ccccc2)c1
inactive: dose: 50.0 mg/kg/injection, schedule: Q01DX001 (ip), vehicle: saline 112 % of control | [1] 106 % of control | [2] 104 % of control | [3] 104 % of control

CCOP(=O)(OCC)OCCSCC
inactive: [8] 103 % of control | [14] 102 % of control

NCCCCC(N)C(=O)CCl (centres undefined)
inactive: [6] 110 % of control | [7] 97 % of control | [11] 94 % of control

CCCCCCCCCCCCCCCCOc1ccc(S(=O)(=O)c2ccccc2)cc1[N+](=O)[O-]
inactive: [12] 91 % of control | [13] 94 % of control | dose: 400.0 mg/kg/injection, schedule: Q01DX009 (ip), vehicle: saline sonified 96 % of control | dose: 400.0 mg/kg/injection, schedule: Q04DX003 (ip), vehicle: Klucel (hydroxypropylcellulose) (HPC) 96 % of control

CCCC1=NNC(=O)C1(Br)Br
inactive: dose: 10.0 mg/kg/injection, schedule: Q01DX001 (ip), vehicle: carboxymethylcellulose (CMC) 97 % of control | dose: 20.0 mg/kg/injection, schedule: Q01DX001 (ip), vehicle: carboxymethylcellulose (CMC) 91 % of control | dose: 40.0 mg/kg/injection, schedule: Q01DX001 (ip), vehicle: carboxymethylcellulose (CMC) 92 % of control | dose: 80.0 mg/kg/injection, schedule: Q01DX001 (ip), vehicle: carboxymethylcellulose (CMC) 97 % of control

ClCCN(CCCl)c1ccc(-c2csc(COc3ccccc3)n2)cc1
inactive: dose: 100.0 mg/kg/injection, schedule: Q01DX001 (ip), vehicle: carboxymethylcellulose (CMC) 102 % of control | dose: 200.0 mg/kg/injection, schedule: Q01DX001 (ip), vehicle: carboxymethylcellulose (CMC) 96 % of control | dose: 400.0 mg/kg/injection, schedule: Q01DX001 (ip), vehicle: carboxymethylcellulose (CMC) 91 % of control
